For two compounds, T½ results are on record in patent US20240287107A1, “PRODRUGS OF DIMETHYLTRYPTAMINE AND DERIVATIVES THEREOF” (priority 2022, published 2024).

Structures are written as SMILES.

This data set can be described thus: Stability in mouse plasma. It counts as in vitro ADME. On the procedure:
Chemical and plasma stability of prodrug Compound 1 was evaluated and the results enumerated in Table 7 and Table 8, respectively. PK studies of prodrug Compound 1 and metabolite (VLS-02-23-10) in mice were also conducted and both plasma exposure and brain exposure were analyzed as shown in FIGS. 1A-1C and FIGS. 2A-2B, respectively.

Take `CC(C)[N+](C)(CCOC(=O)C1c2ccccc2Oc2ccccc21)C(C)C` [Propantheline]: the T½ came out at 0.5682 h. As for `C[N+](C)(CCc1c[nH]c2ccccc12)COP(=O)([O-])O` [Compound 1, ((2-(1H-indol-3-yl)ethyl)dimethyl-λ^4-azaneyl)methyl hydrogen phosphate], the figure is 9.4723 h.
